Measured values as given in ChEMBL document CHEMBL1781915, “Potential virtual lead identification in the discovery of renin inhibitors: application of ligand and structure-based pharmacophore modeling approaches” (Eur J Med Chem, 2011).

Target: T1, Renin (Homo sapiens, UniProt P00797)
T1 sequence (P00797 whole entry): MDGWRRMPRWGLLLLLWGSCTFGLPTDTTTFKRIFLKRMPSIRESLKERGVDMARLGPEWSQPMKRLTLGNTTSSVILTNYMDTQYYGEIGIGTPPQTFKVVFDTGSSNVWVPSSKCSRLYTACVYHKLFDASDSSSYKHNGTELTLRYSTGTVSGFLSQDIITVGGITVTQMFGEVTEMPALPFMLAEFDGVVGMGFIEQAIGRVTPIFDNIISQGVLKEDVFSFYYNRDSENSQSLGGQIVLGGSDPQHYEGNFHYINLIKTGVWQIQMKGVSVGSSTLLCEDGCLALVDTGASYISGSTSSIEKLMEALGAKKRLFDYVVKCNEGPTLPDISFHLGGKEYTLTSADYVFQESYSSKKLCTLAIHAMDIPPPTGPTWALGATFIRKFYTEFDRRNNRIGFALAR

Row | IC50 | SMILES
1 | 0.7 nM | CCCCNC(=O)C(CC(=O)C(CC1CCCCC1)NC(=O)C(Cc1cnc[nH]1)NC(=O)C(Cc1ccccc1)CS(=O)(=O)C(C)(C)C)C(C)C (stereo unspecified)
2 | 0.8 nM | CCCCNC(=O)C(C)CC(O)C(N)CC(C)(C)CC(=O)N1CC(C(=O)OC)Cc2ccccc21 (stereo unspecified)
3 | 0.9 nM | CCCCNC(=O)C(C)CC(O)C(N)CC(CNC(=O)c1cccc(OCCCOC)c1)C(C)C (stereo unspecified)
4 | 1 nM | CC(C)(C)S(=O)(=O)CC(Cc1ccccc1)C(=O)NC(Cc1cnc[nH]1)C(=O)NC(CC1CCCCC1)C(O)C(O)C1CC1 (stereo unspecified)
5 | 37 nM | COc1ccccc1COCCCOc1ccc(N2C(=O)CNCC2COC2=CC3C(=CC=CN3CCCO)C=C2)cc1 (stereo unspecified)

Row | SMILES | IC50
6 | Cc1cc(Cl)c(OCCOc2ccc(C3=C(C(=O)N(Cc4cccc(C)c4C)C4CC4)C4CNCC(C3)N4)cc2)c(Cl)c1 (stereo unspecified) | 0.16 nM
